Columns and labels:
[1] = accelerated stability model: paricalcitol solution in stoppered vials or ampule, inverted, 80° C., 21 days, HPLC; type: physicochemical
Procedure: In order to effectively evaluate different container closures, an accelerated stability model was devised, wherein vials that contained a paricalcitol solution and were sealed with 27 different types of stoppers were stored inverted and protected from light at 80° C. for 21 days. The vials were different only in the composition of the stoppers which were obtained from commercially available sources. Throughout the 21 day trial, samples were removed at day 2, 7, 14 and 21, and the contents of the vial were analyzed by HPLC (High Pressure Liquid Chromatography) to determine the concentration of the test compound paricalcitol compared to a control sample of known concentration. The control sample consisted of a paricalcitol injection solution stored in a sealed glass ampule which maintained 100% potency for the entirety of the test (21 days). The relative concentration of the paricalcitol in the vials stored with test stoppers compared to the control sample was measured indicating stability of the paricalcitol over the 21 day test. In addition, the accelerated shelf-life study conditions were conducted on an identical vial wherein the headspace of the vials was blanketed with argon gas above the paricalcitol solutions prior to sealing with the appropriate stopper. The argon blanketed sample containing a lower concentration of oxygen was compared to the control sample to determine the stability of the test compound in a more inert atmosphere. The 80° C. 21 day rapid screening method of solutions of paricalcitol in the presence of different stoppers was designed to predict the stability of the test compound (i.e., paricalcitol) relative to the containers that are used in the current marketed product. The paricalcitol solution preparation: (5 mcg/mL in water-propylene glycol-ethanol/50:30:20; as defined under USP28-NF23 Page 1471 guidelines) contains not less than 90.0 percent and not more than 110.0 percent of the labeled amount of paricalcitol (C27H44O3). 1 mL of solution was added to a 5 mL or 10 mL (for 20 mm stopper) Type 1 glass vial. The vials were sealed with the various types of stoppers. In order to evaluate the effect of oxygen, a second series of identical vials was blanketed with argon prior to capping with the stoppers. All of the samples were stored inverted in a light-protected, 80° C. oven to obtain maximum contact between solution and the stopper. Ampule samples (with no headspace argon gassing) were prepared and stored along with vials under the same condition to serve as a control. At least 2 samples for each type of stopper were pulled out at 2, 7, 14, and 21 day time points and assayed using HPLC without further dilution. Paricalcitol concentration profiles from the vials containing different composition stoppers were compared to the same solution packaged in ampules. The relative concentration of remaining paricalcitol was plotted over the course of the 21 day test to determine the relative stability of paricalcitol in the presence of the test stopper. Chromatographic system used: The liquid chromatograph was equipped with a 252-nm detector and a 4.6-mm×25-cm column that contains 5-μm packing L1 with a flow rate about 2 mL per minute. […] Separately inject equal volumes (about 100 to 200 μL) of the Standard preparation and the Assay preparation into the chromatograph, record the chromatograms, and measure the responses for the major peaks. Calculate the quantity, in μg, of paricalcitol (C27H44O3) in each mL of the Injection taken by the formula: C(rU/rS), in which C is the concentration, in μg per mL, of paricalcitol in the control standard, calculated on the basis of the content of paricalcitol in the USP Paricalcitol Solution RS; and rU and rS are the paricalcitol peak responses obtained from the test samples and the control standard, respectively. Results Five stability studies were conducted to evaluate the stoppers. […]

[2] = formulation study of the effect of BHT on paricalcitol stability, 35 day 80° C. degradation model; type: physicochemical; settings: no BHT, ampule and vial with 4432/50/Flu/B2-40 stopper, 35 days
Procedure: BHT is an antioxidant and is often used to protect chemicals and materials from oxidative degradation and is present in several of the stoppers. Levels of BHT were identified in the test samples during the 21 day, 80° C. storage and during a separate 25, 30, and 40° C. stability studies conducted over a 9-month interval. […] To determine, whether or not BHT would enhance the stability or cause degradation of the paricalcitol solution, a formulation study was conducted to evaluate the effect of BHT on the stability of paricalcitol in the Zemplar® formulation with the current stopper using a 35 day 80° C. degradation model. In this study, different amounts of BHT were added to the Zemplar® formulation with concentrations of 0.05, 0.1, 0.5, and 1.0 mcg/mL. The controls consisted of the Zemplar formulation without BHT contained in ampules and vials sealed with either […]-1/FT/B2-40 or the 4432/50/Flu/B2-40 stoppers. […] Therefore, causes not fully understood led to the enhanced stabilization of the paricalcitol solution contained in samples with 4432/50/Flu/B2-40 stoppers.

[3] = commercially available injection vial containing a solution of paricalcitol; cited from earlier work

SMILES: C[C@H](/C=C/[C@H](C)C(C)(C)O)[C@H]1CC[C@H]2/C(=C/C=C3C[C@@H](O)C[C@H](O)C3)CCC[C@]12C [paricalcitol]
- stability with argon headspace gassing ([1]; Study 1, argon headspace, chlorobutyl stoppers versus other stoppers): more stable
- concentration of paricalcitol within the vial ([1]; Study 1, without argon headspace, Stopper #8 (Ashland chlorobutyl, Tefzel)): comparable to the sample stored in the ampule
- degradation over the 21 day test period ([1]; Study 1, without argon headspace, Stopper #8 (Ashland chlorobutyl, Tefzel) and Stopper #7 (Ashland chlorobutyl, uncoated) versus stoppers #3, 10, 12, 13): least degradation
- paricalcitol concentration ([1]; Study 2, West chlorobutyl and Daikyo chlorinated butyl stoppers, 21 days at 80° C.): remained unchanged
- concentration of paricalcitol at the 21 day interval ([1]; Study 2, argon headspace, butyl, bromobutyl and POE stoppers compared to chlorobutyl and chlorinated butyl stoppers): still lowest
- stability profile ([1]; Study 3, without argon, Ashland 5212 chlorobutyl stoppers with Plasma and Prop coatings): constant stability profiles
- performance relative to ampule ([1]; Study 4, West 4432/50 stopper without any barrier coating): performed as well as the ampule sample
- concentration of paricalcitol throughout the 21 day test ([1]; Study 4, stoppers consisting of chlorobutyl material): consistently maintained the highest concentration
- time point at which potency drop starts ([1]; vial with D777-1/FT/B2-40 stopper (marketed stopper), 80° C.): 7 days
- rate of decomposition over the 21 days ([1]; vials sealed with chlorobutyl or chlorinated butyl stoppers, 80° C.): slowest rate of decomposition
- paricalcitol concentration [2]: remained constant
- current shelf-life [3]: 1 year
